Converted amounts (≈) assume the structure as drawn.
Columns and labels:
C. albicans biofilm [1] = assay: MTT assay of C. albicans biofilm; assay type: cell-based
Experimental: To investigate the effect of the agents on preformed biofilms, biofilms were allowed to mature in for 24 h at 37° C. in a 6-well plate. The biofilms were washed twice with PBS. The active agents were then applied. The plates were further incubated for 24 h at 37° C. The amounts of biofilms, were determined quantitatively using a standard MTT reduction assay as described previously. Briefly, biofilms were overlaid with […] of 3-(4,5-dimethyl-2-thiazolyl)-2,5-diphenyl-2H-tetrazolium bromide (MTT) and incubated for 2 h at 37° C. Under these conditions, the lightly yellowish MTT was reduced to a blue tetrazolium salt accumulated within the metabolic active biofilms. The stain was then dissolved in DMSO and the absorbance value was measured at 570 nm. The accumulation of tetrazolium salt by the reduction of MTT is proportional to the number of viable cells growing in biofilm. Prior to dissolving in DMSO, biofilms were photographed and visualized. Assay was performed in triplicate.

[2] = system: S.aureus MRSA 33592 biofilm; assay: Biofilm formation of MRSA 33592, cannabinoid alone and combined with antibiotic (MBIC/FBIC/FBICI); assay type: cell-based; conditions: for MBIC AMP: ampicillin alone; for MBIC METH: methicillin alone
[3] = system: S.aureus MRSA 43300 biofilm; assay: Biofilm formation of MRSA 43300, cannabinoid alone and combined with antibiotic (MBIC/FBIC/FBICI); assay type: cell-based; conditions: for MBIC AMP: ampicillin alone; for MBIC METH: methicillin alone
S.aureus MRSA 33592 = assay: Growth of MRSA 33592, cannabinoid alone and combined with antibiotic (MIC/FIC/FICI); assay type: cell-based; conditions: MRSA 33592 growth; for MIC AMP: ampicillin alone; for MIC METH: methicillin alone
S.aureus MRSA 43300 = assay: Growth of MRSA 43300, cannabinoid alone and combined with antibiotic (MIC/FIC/FICI); assay type: cell-based; conditions: MRSA 43300 growth; for MIC AMP: ampicillin alone; for MIC METH: methicillin alone
[4] = system: fluconazole resistant C. albicans strains; assay type: cell-based; conditions: each agent alone or in combination; data not shown
S. mutans biofilm = S. mutans biofilm formation inhibition; assay type: cell-based; conditions: for MBIC50: S. mutans biofilm formation
[5] = system: mixed C. albicans-S. mutans biofilm; assay: Co-species C. albicans-S. mutans biofilm formation inhibition; assay type: cell-based
C. albicans biofilm [6] = assay: C. albicans biofilm formation inhibition; assay type: cell-based
C. albicans biofilm [7] = assay: Flow cytometry analysis of viable cells in fungal biofilm; assay type: cell-based; conditions: for granularity: control 136 AU; for cell size: control 260 AU
C. albicans biofilm [8] = assay: Microscopic observation of fungal morphology in biofilm; assay type: cell-based
C. albicans = C. albicans growth (MIC); assay type: cell-based; conditions: single C. albicans growth; highest tested dose 64 μg/ml
S. mutans = S. mutans growth (MIC); assay type: cell-based; conditions: single S. mutans growth
[9] = system: mixed S. mutans-C. albicans; assay: Growth of C. albicans-S. mutans co-culture; assay type: cell-based; conditions: all tested doses
S. aureus MRSA 24433 = assay: Growth of MRSA 24433, cannabinoid alone and combined with antibiotic (MIC/FIC/FICI); assay type: cell-based; conditions: for FIC METH / MIC METH: MRSA 24433 growth; for MIC METH: methicillin alone
[10] = system: S. aureus MRSA 24433 biofilm; assay: Biofilm formation of MRSA 24433, cannabinoid alone and combined with antibiotic (MBIC/FBIC/FBICI); assay type: cell-based; conditions: for MBIC METH: methicillin alone
P. aeruginosa biofilm = assay: CLSM of treated P. aeruginosa biofilm

CCCCC/C=C\C/C=C\C/C=C\C/C=C\CCCC(=O)OC(CO)CO [2-AG, 2-arachidonoyl glycerol]
C. albicans biofilm formation (MTT assay) (C. albicans biofilm [1]): dose-dependent inhibition

CC1(C)S[C@@H]2[C@H](NC(=O)[C@H](N)c3ccccc3)C(=O)N2[C@H]1C(=O)O [AMP, ampicillin, reference compound]
FBIC AMP ([2]; MBIC of ampicillin in combination with AEA, Table 8A): 8 | FBIC AMP ([2]; MBIC of ampicillin in combination with ARAS, Table 5A): 32 | MBIC AMP ([2]; Table 5A): 128 | MBIC AMP ([2]; Table 8A): 128 | FBIC AMP ([3]; MBIC of ampicillin in combination with AEA, Table 8B): 8 | FBIC AMP ([3]; MBIC of ampicillin in combination with ARAS, Table 5B): 64 | MBIC AMP ([3]; Table 5B): 256 | MBIC AMP ([3]; Table 8B): >128 | FIC AMP (S.aureus MRSA 33592; MIC of ampicillin in combination with AEA, Table 8A): 8 | FIC AMP (S.aureus MRSA 33592; MIC of ampicillin in combination with ARAS, Table 5A): 64 | MIC AMP (S.aureus MRSA 33592; Table 5A): 128 mg/L | MIC AMP (S.aureus MRSA 33592; Table 8A): 128 mg/L | FIC AMP (S.aureus MRSA 43300; MIC of ampicillin in combination with AEA, Table 8B): 8 | FIC AMP (S.aureus MRSA 43300; MIC of ampicillin in combination with ARAS, Table 5B): 16 | MIC AMP (S.aureus MRSA 43300; Table 5B): 256 mg/L | MIC AMP (S.aureus MRSA 43300; Table 8B): > 128 mg/L

OC(Cn1cncn1)(Cn1cncn1)c1ccc(F)cc1F [FLU, fluconazole, reference compound]
growth of fluconazole resistant fungal strains [4]: not affected

CCCCCCC(C)(C)c1cc(O)c2c(c1)OC(C)(C)[C@@H]1CC=C(CO)C[C@@H]21 [HU210, 1,1-Dimethylheptyl-11-hydroxy-tetrahydrocannabinol]
streptococcal biofilm formation (S. mutans biofilm; HU210 2 μg/ml): No streptococcal biofilm was formed | MBIC50 [5]: 4 µg/mL | biofilm formation at highest tested dose (C. albicans biofilm [6]; HU210 64 μg/ml): Almost no biofilm formed | MBIC50 (minimal biofilm inhibitory concentration 50, 50% of biofilm inhibition) (C. albicans biofilm [6]; single C. albicans biofilm formation): 2 µg/mL | granularity (C. albicans biofilm [7]; 8 μg/ml): 50 AU | cell size (C. albicans biofilm [7]; 8 μg/ml): 110 AU | viable C. albicans cells in biofilm (C. albicans biofilm [7]; 8 μg/ml, untreated control 88%): 20% | viable cells in fungal biofilm (C. albicans biofilm [7]; 64 μg/ml): totally reduced viable cells | granularity (C. albicans biofilm [7]; 64 μg/ml): 40 AU | cell size (C. albicans biofilm [7]; 64 μg/ml): 100 AU | fungal morphology in biofilm (C. albicans biofilm [8]; 8 μg/ml): influenced fungal morphology | yeast-to-hyphae transition (C. albicans biofilm [8]; 64 μg/ml): appearance of mainly yeast form of C. albicans | density of fungal mycelium (C. albicans biofilm [8]; increasing doses up to 64 μg/ml): decreased dose-dependently | MIC, fungal growth (C. albicans): not detected at tested doses | MIC (S. mutans): 2 mg/L (≈ 5.17 µM) | growth of co-culture [9]: not affected

COc1cccc(OC)c1C(=O)N[C@@H]1C(=O)N2[C@@H]1SC(C)(C)[C@@H]2C(=O)O [METH, methicillin, reference compound]
FBIC METH ([2]; MBIC of methicillin in combination with AEA, Table 6A): 8 | FBIC METH ([2]; MBIC of methicillin in combination with ARAS, Table 3A): 8 | MBIC METH ([2]; Table 3A): 32 | MBIC METH ([2]; Table 6A): 32 | FIC METH (S. aureus MRSA 24433; MIC of methicillin in combination with AEA, Table 1): 16 µg/mL | FIC METH (S. aureus MRSA 24433; MIC of methicillin in combination with AEA, Table 6B): 16 | FIC METH (S. aureus MRSA 24433; MIC of methicillin in combination with ARAS, Table 3B): >64 | MIC METH (S. aureus MRSA 24433; Table 1): >64 mg/L | MIC METH (S. aureus MRSA 24433; Table 3B): > 64 mg/L | MIC METH (S. aureus MRSA 24433; Table 6B): > 64 mg/L | MIC (S. aureus MRSA 24433; Staphylococcus aureus, MRSA, read-out: MIC METH): > 64 mg/L | FBIC METH ([3]; MBIC of methicillin in combination with AEA, Table 6C): 8 | FBIC METH ([3]; MBIC of methicillin in combination with ARAS, Table 3C): 8 | MBIC METH ([3]; Table 3C): 32 | MBIC METH ([3]; Table 6C): 32 | FBIC METH ([10]; MBIC of methicillin in combination with AEA, Table 1): 16 µg/mL | FBIC METH ([10]; MBIC of methicillin in combination with AEA, Table 6B): 16 | FBIC METH ([10]; MBIC of methicillin in combination with ARAS, Table 3B): 16 | MBIC METH ([10]; Table 1): >64 µg/mL | MBIC METH ([10]; Table 3B): >64 | MBIC METH ([10]; Table 6B): >64 | FIC METH (S.aureus MRSA 33592; MIC of methicillin in combination with AEA, Table 6A): 16 | FIC METH (S.aureus MRSA 33592; MIC of methicillin in combination with ARAS, Table 3A): 8 | MIC METH (S.aureus MRSA 33592; Table 3A): 32 mg/L | MIC METH (S.aureus MRSA 33592; Table 6A): 32 mg/L | FIC METH (S.aureus MRSA 43300; MIC of methicillin in combination with AEA, Table 6C): 8 | FIC METH (S.aureus MRSA 43300; MIC of methicillin in combination with ARAS, Table 3C): 2 | MIC METH (S.aureus MRSA 43300; Table 3C): 32 mg/L | MIC METH (S.aureus MRSA 43300; Table 6C): 32 mg/L

CCCCCCCC/C=C\CCCCCCCC(=O)N[C@@H](C)C(=O)O [OA, oleoyl alanine]
MBIC50 (S. mutans biofilm): 16 µg/mL

CCCCCCCC/C=C\CCCCCCCC(=O)NCCO [OEA, oleoyl ethanolamide]
MBIC50 (S. mutans biofilm): 64 µg/mL

CCCCCCCC/C=C\CCCCCCCC(=O)NCC(=O)O [OG, oleoyl glycine]
MBIC50 (S. mutans biofilm): 32 µg/mL

CCCCCCCCCCCCCCCC(=O)NCCO [PEA, palmitoyl ethanolamide]
layers/depth of P. aeruginosa biofilm (P. aeruginosa biofilm): reduced layers/depth of biofilm

gentamycin [reference compound]
FBIC GEN ([2]; MBIC of gentamicin in combination with AEA, Table 7): 8 | FBIC GEN ([2]; MBIC of gentamycin in combination with ARAS, Table 4): 4 | MBIC GEN ([2]; gentamicin alone, Table 7): 128 | MBIC GEN ([2]; gentamycin alone, Table 4): 128 | decrease of MIC in combination (S.aureus MRSA 33592; AEA with gentamicin vs agent alone): 32 fold | FIC GEN (S.aureus MRSA 33592; MIC of gentamicin in combination with AEA, Table 7): 4 | FIC GEN (S.aureus MRSA 33592; MIC of gentamycin in combination with ARAS, Table 4): 4 | MIC GEN (S.aureus MRSA 33592; gentamicin alone, Table 7): 128 mg/L | MIC GEN (S.aureus MRSA 33592; gentamycin alone, Table 4): 128 mg/L
